The values that follow come from ChEMBL document CHEMBL3822385, “Antileishmanial activity of new thiophene-indole hybrids: Design, synthesis, biological and cytotoxic evaluation, and chemometric studies” (Bioorg Med Chem, 2016).

In series [1] the test system is Leishmania amazonensis. The series can be described thus: Antileishmanial activity against Leishmania amazonensis IFLA/BR/67/PH8 promastigotes assessed as parasite growth inhibition incubated for 72 hrs using neubauer chamber by microscopic analysis. It counts as functional, organism-based. Conditions: IFLA/BR/67/PH8, 72 h.
Series [2] can be described thus: Hemolytic activity in human O+ erythrocytes after 1 hr by spectrophotometry. The class given is ADME, cell-based, Erythrocyte. The following applies: for HC50 at 1 h: human O+ erythrocytes.
The nature of series [3]: Selectivity index, ratio of HC50 for human O+ erythrocytes to IC50 for Leishmania amazonensis IFLA/BR/67/PH8 promastigotes.
The test system of series [4] is Leishmania amazonensis. The series can be described thus: Antileishmanial activity against trivalent antimony-resistant Leishmania amazonensis IFLA/BR/67/PH8 promastigotes assessed as parasite growth inhibition incubated for 72 hrs using neubauer chamber by microscopic analysis. The class given is functional, organism-based. Conditions: IFLA/BR/67/PH8, 72 h.
Series [5] relates to Leishmania amazonensis. Put plainly: Induction of genomic DNA fragmentation in Leishmania amazonensis IFLA/BR/67/PH8 promastigotes at 1 to 4 times antileishmanial IC50 after overnight incubation by GelRed staining based agarose gel electrophoresis. The class given is functional, organism-based.

Converted amounts (≈) assume the structure as drawn. The source made the active and inactive calls. The calls are words filed in the database; no cut-off is given here. A value given as a limit tells only on which side of the number the result lay.

In the case of `Cc1cccc2c(/C=N/c3sc4c(c3C#N)CCCC4)c[nH]c12`, the IC50 in the series on Leishmania amazonensis [1] was 322 µg/mL (≈ 1010 µM). In addition, the 50% haemolytic concentration (HC50) at 1 h in series [2] is > 400 µg/mL. Further, the “Selectivity Index” value in series [3] is >1.2.
With `Cc1ccc2[nH]cc(/C=N/c3sc4c(c3C#N)CCCCCC4)c2c1`, the IC50 in the series with Leishmania amazonensis [1] came to 6.5 µg/mL (≈ 18.7 µM). In series [2], the HC50 at 1 h was > 400 µg/mL. The “Selectivity Index” value in series [3] is on record as >61.3.
The matching figures for `N#Cc1c(/N=C/c2c[nH]c3cccc([N+](=O)[O-])c23)sc2c1CCCC2`: 299 µg/mL (≈ 853 µM), > 400 µg/mL and >1.3.
As to `N#Cc1c(/N=C/c2c[nH]c3c2ccc2ccccc23)sc2c1CCCC2`, the IC50 with Leishmania amazonensis [1] is 29.7 µg/mL (≈ 83.6 µM). The concentration for 50% haemolysis (HC50) at 1 h in series [2] was > 400 µg/mL. Moreover, the “Selectivity Index” value in series [3] was >13.5.
Turning to `N#Cc1c(/N=C/c2c[nH]c3ccccc23)sc2c1CCCCCC2`, in the series with Leishmania amazonensis [1], the IC50 amounted to 5.4 µg/mL (≈ 16.2 µM). Also, in series [2], the HC50 at 1 h was > 400 µg/mL. For the same compound, the “Selectivity Index” value in series [3] is >73.2.
The matching figures for `Cc1cccc2c(/C=N/c3sc4c(c3C#N)CCCCC4)c[nH]c12`: 786 µg/mL (≈ 2360 µM), > 400 µg/mL and >0.5.
For `N#Cc1c(/N=C/c2c[nH]c3ncccc23)sc2c1CCCC2` the same measures were 228 µg/mL (≈ 744 µM), > 400 µg/mL and >1.7.
With `N#Cc1c(/N=C/c2c[nH]c3cccc([N+](=O)[O-])c23)sc2c1CCCCCC2`, the IC50 in the series with Leishmania amazonensis [1] was 9.4 µg/mL (≈ 24.8 µM). Besides, the HC50 at 1 h in series [2] was > 400 µg/mL. Further, the “Selectivity Index” value in series [3] is given as >42.5.
For Potassium antimonyl tartrate trihydrate, the Selectivity Index in series [3] was found to be 38.2.
Regarding “MEGLUMINE ANTIMONATE [listing 1 of 2 here]”, the HC50 in series [2] (erythrocyte, 1 h) was determined as 681.2 µg/mL.
Consider `N#Cc1c(/N=C/c2c[nH]c3ncccc23)sc2c1CCCCCC2`, for which, in the series with Leishmania amazonensis [1], the 50% inhibitory concentration (IC50) came to 651 µg/mL (≈ 1950 µM). Moreover, the HC50 at 1 h in series [2] was > 400 µg/mL. For the same compound, in series [3], the “Selectivity Index” value was >0.6.
The matching figures for `Cc1ccc2[nH]cc(/C=N/c3sc4c(c3C#N)CCCCC4)c2c1`: 6.1 µg/mL (≈ 18.3 µM), > 400 µg/mL and >65.6.
As to `Cc1cccc2c(/C=N/c3sc4c(c3C#N)CCCCCC4)c[nH]c12`, the IC50 with Leishmania amazonensis [1] turned out to be 4.1 µg/mL (≈ 11.8 µM). In series [2], the concentration for 50% haemolysis (HC50) at 1 h is > 400 µg/mL. The “Selectivity Index” value in series [3] is >96.6.
For `N#Cc1ccc2[nH]cc(/C=N/c3sc4c(c3C#N)CCCCC4)c2c1` the same measures were 3.4 µg/mL (≈ 9.87 µM), > 400 µg/mL and >115.6.
The matching figures for `N#Cc1ccc2[nH]cc(/C=N/c3sc4c(c3C#N)CCCC4)c2c1`: 4.7 µg/mL (≈ 14.2 µM), > 400 µg/mL and >84.7.
The matching figures for `N#Cc1c(/N=C/c2c[nH]c3ncccc23)sc2c1CCCCC2`: 8.7 µg/mL (≈ 27.2 µM), > 400 µg/mL and >45.8.
For the compound `COc1ccc2[nH]cc(/C=N/c3sc4c(c3C#N)CCC4)c2c1`, the half-inhibitory concentration (IC50) in the series on Leishmania amazonensis [1] was 125 µg/mL (≈ 388 µM). In series [2], the HC50 at 1 h was > 400 µg/mL. Further, the “Selectivity Index” value in series [3] was >3.2.
The matching figures for `N#Cc1c(/N=C/c2c[nH]c3c2ccc2ccccc23)sc2c1CCCCC2`: 18.7 µg/mL (≈ 50.6 µM), > 400 µg/mL and >21.4.
For `N#Cc1c(/N=C/c2c[nH]c3c2ccc2ccccc23)sc2c1CCC2` the same measures were 7.9 µg/mL (≈ 23.1 µM), > 400 µg/mL and >50.7.
For `COc1ccc2[nH]cc(/C=N/c3sc4c(c3C#N)CCCC4)c2c1`, in the series with Leishmania amazonensis [1], the IC50 amounted to 6 µg/mL (≈ 17.9 µM). For the same compound, the HC50 at 1 h in series [2] is > 400 µg/mL. Also, the “Selectivity Index” value in series [3] is given as >66.8.
The matching figures for `N#Cc1c(/N=C/c2c[nH]c3c2ccc2ccccc23)sc2c1CCCCCC2`: 9.4 µg/mL (≈ 24.5 µM), > 400 µg/mL and >42.6.
The matching figures for `C[C@@H]1[C@H](O)[C@@H](C)/C=C/C=C/C=C/C=C/C=C/C=C/C=C/[C@H](O[C@@H]2O[C@H](C)[C@@H](O)[C@H](N)[C@@H]2O)C[C@@H]2O[C@](O)(C[C@@H](O)C[C@@H](O)[C@H](O)CC[C@@H](O)C[C@@H](O)CC(=O)O[C@H]1C)C[C@H](O)[C@H]2C(=O)O` [AMPHOTERICIN B]: 0.2 µg/mL (≈ 0.216 µM), 22.4 µg/mL and 124.5.
For `N#Cc1c(/N=C/c2c[nH]c3ncccc23)sc2c1CCC2` the same measures were 289 µg/mL (≈ 988 µM), > 400 µg/mL and >1.4.
With `Cc1ccc2[nH]cc(/C=N/c3sc4c(c3C#N)CCC4)c2c1`, the 50% inhibitory concentration (IC50) in the series with Leishmania amazonensis [1] amounted to 7.1 µg/mL (≈ 23.2 µM). In series [2], the 50% haemolytic concentration (HC50) at 1 h was > 400 µg/mL. Also, the “Selectivity Index” value in series [3] is >56.6.
For `N#Cc1c(/N=C/c2c[nH]c3ccccc23)sc2c1CCCCC2` the same measures were 3.2 µg/mL (≈ 10 µM), > 400 µg/mL and >124.6.
On to `N#Cc1ccc2[nH]cc(/C=N/c3sc4c(c3C#N)CCCCCC4)c2c1`, for which the figures for the 50% inhibitory concentration (IC50) with Leishmania amazonensis [1] and in the series on Leishmania amazonensis [4] were 2.1 µg/mL (≈ 5.86 µM) and 2.8 µg/mL (≈ 7.81 µM), respectively. The HC50 at 1 h in series [2] was > 400 µg/mL. Moreover, the “Selectivity Index” value in series [3] is >193.2. The result with Leishmania amazonensis [5] was Active.
As to `N#Cc1c(/N=C/c2c[nH]c3ccccc23)sc2c1CCC2`, the IC50 with Leishmania amazonensis [1] turned out to be 48.9 µg/mL (≈ 168 µM). For the same compound, in series [2], the concentration for 50% haemolysis (HC50) at 1 h was > 400 µg/mL. The “Selectivity Index” value in series [3] is reported as >8.2.
In the case of `N#Cc1c(/N=C/c2c[nH]c3cccc([N+](=O)[O-])c23)sc2c1CCC2`, the IC50 in the series with Leishmania amazonensis [1] is 171 µg/mL (≈ 509 µM).
In the case of `Cc1ccc2[nH]cc(/C=N/c3sc4c(c3C#N)CCCC4)c2c1`, the IC50 in the series with Leishmania amazonensis [1] was found to be 2.3 µg/mL (≈ 7.2 µM). Moreover, the concentration for 50% haemolysis (HC50) at 1 h in series [2] is > 400 µg/mL. In addition, in series [3], the “Selectivity Index” value was >172.4.
“MEGLUMINE ANTIMONATE [listing 2 of 2 here]”: the Selectivity Index in series [3] was determined as 0.02.
On to `Cc1cccc2c(/C=N/c3sc4c(c3C#N)CCC4)c[nH]c12`, for which, in the series on Leishmania amazonensis [1], the IC50 turned out to be 91.6 µg/mL (≈ 300 µM).
Take `N#Cc1c(/N=C/c2c[nH]c3ccccc23)sc2c1CCCC2`: in the series with Leishmania amazonensis [1], the concentration for half-maximal inhibition (IC50) stood at 4.5 µg/mL (≈ 14.7 µM). For the same compound, the HC50 at 1 h in series [2] was > 400 µg/mL. For the same compound, in series [3], the “Selectivity Index” value is >88.8.
For `N#Cc1ccc2[nH]cc(/C=N/c3sc4c(c3C#N)CCC4)c2c1` the same measures were 7.4 µg/mL (≈ 23.4 µM), > 400 µg/mL and >53.7.
The matching figures for `N#Cc1c(/N=C/c2c[nH]c3cccc([N+](=O)[O-])c23)sc2c1CCCCC2`: 1070 µg/mL (≈ 2930 µM), > 400 µg/mL and >0.3.
For `COc1ccc2[nH]cc(/C=N/c3sc4c(c3C#N)CCCCCC4)c2c1` the same measures were 6.4 µg/mL (≈ 17.6 µM), > 400 µg/mL and >62.7.
On to `COc1ccc2[nH]cc(/C=N/c3sc4c(c3C#N)CCCCC4)c2c1`, for which the IC50 in the series with Leishmania amazonensis [1] stood at 10.2 µg/mL (≈ 29.2 µM). For the same compound, in series [2], the HC50 at 1 h is > 400 µg/mL. For the same compound, the “Selectivity Index” value in series [3] is on record as >39.1.
